Assay results: the supplement of paper PMC11061612

How the values were obtained:
Carboplatin = compound: C1CC(C1)(C(=O)[O-])C(=O)[O-].N.N.[Pt+2] [Carboplatin]; details: max 10 µM
Outline: (§1)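 Viability was measured with CellTiter-Glo 2.0 luminescence after 72 hours of dosing at a final DMSO of typically 0.2%, and scaled between blank-well and DMSO-well means. Beforehand, cancer cell lines sat 24 hours at 37°C and 5% CO2 in 1536-well plates in 7.5 μl DMEM/F12 or RPMI with 10% FBS. A non-linear mixed effects model fitted two-parameter logistic curves to the dose responses. The single-agent IC50 comes from these fits.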

AZD5363 = compound: C1CN(CCC1(C(=O)N[C@@H](CCO)C2=CC=C(C=C2)Cl)N)C3=NC=NC4=C3C=CN4 [AZD5363]; details: max 10 µM
Outline: as §1

AZD1775 = compound: C=CCn1c(=O)c2cnc(Nc3ccc(N4CCN(C)CC4)cc3)nc2n1-c1cccc(C(C)(C)O)n1 [AZD1775]; details: max 3 µM
Outline: as §1

Trametinib = compound: CC(=O)Nc1cccc(-n2c(=O)n(C3CC3)c(=O)c3c(Nc4ccc(I)cc4F)n(C)c(=O)c(C)c32)c1 [Trametinib]; details: max 1 µM
Outline: as §1

Paclitaxel = compound: CC(=O)O[C@H]1C(=O)[C@@]2(C)[C@H]([C@H](OC(=O)c3ccccc3)[C@]3(O)C[C@H](OC(=O)[C@H](O)[C@@H](NC(=O)c4ccccc4)c4ccccc4)C(C)=C1C3(C)C)[C@]1(OC(C)=O)CO[C@@H]1C[C@@H]2O [Paclitaxel]; details: max 3 µM
Outline: as §1

Palbociclib = compound: CC(=O)c1c(C)c2cnc(Nc3ccc(N4CCNCC4)cn3)nc2n(C2CCCC2)c1=O [Palbociclib]; details: max 10 µM
Outline: as §1

AZD1390 = compound: CC(C)n1c(=O)n(C)c2cnc3cc(F)c(-c4ccc(OCCCN5CCCCC5)nc4)cc3c21 [AZD1390]; details: max 0.3 µM
Outline: as §1

Venetoclax = compound: CC1(C)CCC(CN2CCN(c3ccc(C(=O)NS(=O)(=O)c4ccc(NCC5CCOCC5)c([N+](=O)[O-])c4)c(Oc4cnc5[nH]ccc5c4)c3)CC2)=C(c2ccc(Cl)cc2)C1 [Venetoclax]; details: max 1 µM
Outline: as §1

Dasatinib = compound: CC1=C(C(=CC=C1)Cl)NC(=O)C2=CN=C(S2)NC3=CC(=NC(=N3)C)N4CCN(CC4)CCO [Dasatinib]; details: max 2 µM
Outline: as §1

AZD2811 = compound: CCN(CCO)CCCOc1ccc2c(Nc3cc(CC(=O)Nc4cccc(F)c4)[nH]n3)ncnc2c1 [AZD2811]; details: max 1 µM
Outline: as §1

SN-38 = compound: CCc1c2c(nc3ccc(O)cc13)-c1cc3c(c(=O)n1C2)COC(=O)[C@]3(O)CC [SN-38]; details: max 0.3 µM
Outline: as §1

AZD0156 = compound: CN(C)CCCOc1ccc(-c2ccc3ncc4c(c3c2)n(C2CCOCC2)c(=O)n4C)cn1 [AZD0156]; details: max 3 µM
Outline: as §1

AZD4320 = compound: CN(CC[C@H](CSC1=CC=CC=C1)NC2=C(C=C(C=C2)S(=O)(=O)NC(=O)C3=CC=C(C=C3)N4CCC(CC4)[C@H](C5=CC=CC=C5C6=CC=C(C=C6)Cl)O)S(=O)(=O)C(F)(F)F)CCO [AZD4320]; details: max 1 µM
Outline: as §1

Etoposide = compound: COc1cc([C@@H]2c3cc4c(cc3[C@@H](O[C@@H]3O[C@@H]5CO[C@@H](C)O[C@H]5[C@H](O)[C@H]3O)[C@H]3COC(=O)[C@H]23)OCO4)cc(OC)c1O [Etoposide]; details: max 10 µM
Outline: as §1

Gefitinib = compound: COc1cc2ncnc(Nc3ccc(F)c(Cl)c3)c2cc1OCCCN1CCOCC1 [Gefitinib]; details: max 10 µM
Outline: as §1

AZD5153 = compound: COc1nnc2ccc(N3CCC(c4ccc(OCCN5CCN(C)C(=O)[C@H]5C)cc4)CC3)nn12 [AZD5153]; details: max 1 µM
Outline: as §1

Lapatinib = compound: CS(=O)(=O)CCNCc1ccc(-c2ccc3ncnc(Nc4ccc(OCc5cccc(F)c5)c(Cl)c4)c3c2)o1 [Lapatinib]; details: max 10 µM
Outline: as §1

AZD8186 = compound: C[C@@H](Nc1cc(F)cc(F)c1)c1cc(C(=O)N(C)C)cc2c(=O)cc(N3CCOCC3)oc12 [AZD8186]
Outline: as §1

Crizotinib = compound: C[C@@H](Oc1cc(-c2cnn(C3CCNCC3)c2)cnc1N)c1c(Cl)ccc(F)c1Cl [Crizotinib]; details: max 10 µM
Outline: as §1

Savolitinib = compound: C[C@@H](c1ccc2nccn2c1)n1nnc2ncc(-c3cnn(C)c3)nc21 [Savolitinib]; details: max 1 µM
Outline: as §1

AZD6738 = compound: C[C@@H]1COCCN1C2=NC(=NC(=C2)C3(CC3)[S@](=N)(=O)C)C4=C5C=CNC5=NC=C4 [AZD6738]; details: max 10 µM
Outline: as §1

AZD5991 = compound: Cc1c2c(nn1C)CSCc1cc(n(C)n1)CSc1cc(c3ccccc3c1)OCCCc1c(C(=O)O)n(C)c3c-2c(Cl)ccc13 [AZD5991]; details: max 1 µM
Outline: as §1

AZD7648 = compound: Cc1cc2ncnn2cc1Nc1ncc2c(n1)n(C1CCOCC1)c(=O)n2C [AZD7648]; details: max 10 µM
Outline: as §1

Taselisib = compound: Cc1nc(-c2cn3c(n2)-c2ccc(-c4cnn(C(C)(C)C(N)=O)c4)cc2OCC3)n(C(C)C)n1 [Taselisib]; details: max 10 µM
Outline: as §1

Selumetinib = compound: Cn1cnc2c(F)c(Nc3ccc(Br)cc3Cl)c(C(=O)NOCCO)cc21 [Selumetinib]; details: max 10 µM
Outline: as §1

SRA737 = compound: N#Cc1cnc(Nc2cc(NC[C@H]3CNCCO3)c(C(F)(F)F)cn2)cn1 [SRA737]; details: max 10 µM
Outline: as §1

MK-2206 = compound: NC1(c2ccc(-c3nc4ccn5c(=O)[nH]nc5c4cc3-c3ccccc3)cc2)CCC1 [MK-2206]; details: max 10 µM
Outline: as §1

Gemcitabine = compound: Nc1ccn([C@@H]2O[C@H](CO)[C@@H](O)C2(F)F)c(=O)n1 [Gemcitabine]; details: max 0.3 µM
Outline: as §1

[1] = compound: O=C(Nc1ccc2[nH]nc(-c3ccncc3)c2c1)[C@@H]1CCN(CC(=O)N2CCN(c3ccc(-c4ncccn4)cc3)CC2)C1; details: max 5 µM
Outline: as §1

Olaparib = compound: O=C(c1cc(Cc2n[nH]c(=O)c3ccccc23)ccc1F)N1CCN(C(=O)C2CC2)CC1 [Olaparib]; details: max 10 µM
Outline: as §1

5-Fluorouracil = compound: O=c1[nH]cc(F)c(=O)[nH]1 [5-Fluorouracil]; details: max 20 µM
Outline: as §1

Capivasertib = compound: C1CN(CCC1(C(=O)N[C@@H](CCO)C2=CC=C(C=C2)Cl)N)C3=NC=NC4=C3C=CN4 [Capivasertib]; details: max 10 µM
Outline: as §1

SG3199 = compound: CC1=CN2[C@@H](C1)C=NC3=CC(=C(C=C3C2=O)OC)OCCCCCOC4=C(C=C5C(=C4)N=C[C@@H]6CC(=CN6C5=O)C)OC [SG3199]; details: max 0.001 µM
Outline: as §1

Alisertib = compound: COc1cc(Nc2ncc3c(n2)-c2ccc(Cl)cc2C(c2c(F)cccc2OC)=NC3)ccc1C(=O)O [Alisertib]; details: max 10 µM
Outline: as §1

Prexasertib = compound: COc1cccc(OCCCN)c1-c1cc(Nc2cnc(C#N)cn2)n[nH]1 [Prexasertib]; details: max 1 µM
Outline: as §1

Doxorubicin = compound: COc1cccc2c1C(=O)c1c(O)c3c(c(O)c1C2=O)C[C@@](O)(C(=O)CO)C[C@@H]3O[C@H]1C[C@H](N)[C@H](O)[C@H](C)O1 [Doxorubicin]; details: max 1 µM
Outline: as §1

OCI-AML3 (Acute Myeloid Leukemia)
IC50, cell viability 72 h (Carboplatin): > 10000 nM
IC50, cell viability 72 h (AZD5363): > 10000 nM
IC50, cell viability 72 h (AZD1775): 615 nM
IC50, cell viability 72 h (Trametinib): 2.98 nM
IC50, cell viability 72 h (Paclitaxel): 4.57 nM
IC50, cell viability 72 h (Palbociclib): 5340 nM
IC50, cell viability 72 h (AZD1390): > 300 nM
IC50, cell viability 72 h (Venetoclax): > 1000 nM
IC50, cell viability 72 h (Dasatinib): > 2000 nM
IC50, cell viability 72 h (AZD2811): 324 nM
IC50, cell viability 72 h (SN-38): 10.1 nM
IC50, cell viability 72 h (AZD0156): > 3000 nM
IC50, cell viability 72 h (AZD4320): > 1000 nM
IC50, cell viability 72 h (Etoposide): 1270 nM
IC50, cell viability 72 h (Gefitinib): > 10000 nM
IC50, cell viability 72 h (AZD5153): 25.6 nM
IC50, cell viability 72 h (Lapatinib): > 10000 nM
IC50, cell viability 72 h (AZD8186; max 10 µM): > 10000 nM
IC50, cell viability 72 h (Crizotinib): 6530 nM
IC50, cell viability 72 h (Savolitinib): > 1000 nM
IC50, cell viability 72 h (AZD6738): 1810 nM
IC50, cell viability 72 h (AZD5991): 250 nM
IC50, cell viability 72 h (AZD7648): > 10000 nM
IC50, cell viability 72 h (Taselisib): 1440 nM
IC50, cell viability 72 h (Selumetinib): 91.9 nM
IC50, cell viability 72 h (SRA737): 5320 nM
IC50, cell viability 72 h (MK-2206): > 10000 nM
IC50, cell viability 72 h (Gemcitabine): 5.04 nM
IC50, cell viability 72 h [1]: 156 nM
IC50, cell viability 72 h (Olaparib): > 10000 nM
IC50, cell viability 72 h (5-Fluorouracil): 3070 nM

SU-DHL-5 (B-Cell Non-Hodgkin's Lymphoma)
IC50, cell viability 72 h (Capivasertib): 305 nM
IC50, cell viability 72 h (AZD1775): 363 nM
IC50, cell viability 72 h (Trametinib): 1000 nM
IC50, cell viability 72 h (Palbociclib): 559 nM
IC50, cell viability 72 h (AZD1390): > 300 nM
IC50, cell viability 72 h (Venetoclax): > 1000 nM
IC50, cell viability 72 h (Dasatinib): 10.8 nM
IC50, cell viability 72 h (SG3199): > 1 nM
IC50, cell viability 72 h (AZD2811): 9.84 nM
IC50, cell viability 72 h (SN-38): 1.38 nM
IC50, cell viability 72 h (AZD0156): > 3000 nM
IC50, cell viability 72 h (AZD4320): > 1000 nM
IC50, cell viability 72 h (Alisertib): 359 nM
IC50, cell viability 72 h (Gefitinib): > 10000 nM
IC50, cell viability 72 h (Prexasertib): 4.89 nM
IC50, cell viability 72 h (Doxorubicin): 13 nM
IC50, cell viability 72 h (AZD5153): 42.3 nM
IC50, cell viability 72 h (Lapatinib): 6610 nM
IC50, cell viability 72 h (AZD8186; max 3 µM): 160 nM
IC50, cell viability 72 h (Crizotinib): 1650 nM
IC50, cell viability 72 h (Savolitinib): > 1000 nM
IC50, cell viability 72 h (AZD6738): 457 nM
IC50, cell viability 72 h (AZD5991): 8.62 nM
IC50, cell viability 72 h (AZD7648): 6580 nM
IC50, cell viability 72 h (Taselisib): 48.6 nM
IC50, cell viability 72 h (Selumetinib): > 10000 nM
IC50, cell viability 72 h (Olaparib): 3380 nM

SUP-B15 (B-Lymphoblastic Leukemia)
IC50, cell viability 72 h (Capivasertib): 8510 nM
IC50, cell viability 72 h (AZD1775): 692 nM
IC50, cell viability 72 h (Trametinib): 627 nM
IC50, cell viability 72 h (Palbociclib): > 10000 nM
IC50, cell viability 72 h (AZD1390): > 300 nM
IC50, cell viability 72 h (Venetoclax): 3.48 nM
IC50, cell viability 72 h (Dasatinib): 10.5 nM
IC50, cell viability 72 h (SG3199): > 1 nM
IC50, cell viability 72 h (AZD2811): 34 nM
IC50, cell viability 72 h (SN-38): 2.7 nM
IC50, cell viability 72 h (AZD0156): > 3000 nM
IC50, cell viability 72 h (AZD4320): 2.13 nM
IC50, cell viability 72 h (Alisertib): 38.4 nM
IC50, cell viability 72 h (Gefitinib): > 10000 nM
IC50, cell viability 72 h (Prexasertib): 21.7 nM
IC50, cell viability 72 h (Doxorubicin): 369 nM
IC50, cell viability 72 h (AZD5153): 98 nM
IC50, cell viability 72 h (Lapatinib): > 10000 nM
IC50, cell viability 72 h (AZD8186; max 3 µM): > 3000 nM
IC50, cell viability 72 h (Crizotinib): 1380 nM
IC50, cell viability 72 h (Savolitinib): > 1000 nM
IC50, cell viability 72 h (AZD6738): 2110 nM
IC50, cell viability 72 h (AZD5991): 38.9 nM
IC50, cell viability 72 h (AZD7648): > 10000 nM
IC50, cell viability 72 h (Taselisib): > 10000 nM
IC50, cell viability 72 h (Selumetinib): > 10000 nM
IC50, cell viability 72 h (Olaparib): 2020 nM
